{"source": "patent US10821142B2", "about": "“Cancer treatment and diagnosis” (priority 2015, dated 2020)", "key": {"[1]": {"system": "STING-dependent genes in murine embryonic fibroblasts", "assay": "Gene array and qPCR of WT and SKO MEFs treated with AOM or DMH", "assay_type": "cell-based, mouse", "settings": "AOM 0.14 mM for 8 hours", "method": "(§1) FIGS. 1A-1E show activation of STING-dependent genes by azoxymethane (AOM) (FIG. 1A) Gene array analysis of Wild type (WT) and STING deficient (SKO) mouse embryonic fibroblasts (MEFs) treated with AOM at 0.14 mM for 8 hours (Left) and 1,2-dimethylhydrazine (DMH) at 1 mM for 8 hours (Right). Highest variable genes are shown. Rows represent individual genes; columns represent individual samples. Grayscale indicates transcript levels below, equal to, or above the mean. Scale represents the intensity of gene expression (log 2 scale ranges between −2.4 and 2.4). (FIG. 1B) qPCR analysis of Cxcl10 and Ifit3 in MEFs treated with AOM and DMH same as FIG. 1A. (FIG. 1C) qPCR analysis of Cxcl10 in Human epithelial cell (FHC) treated with AOM and DMH at 1 mM for 24 hours. (FIG. 1D) FHC cells were transfected with STING or control siRNA for 72 hours followed by AOM and DMH treatment same as FIG. 1C, and were then subjected to Cxcl0 mRNA expression (Left). STING expression level after siRNA treatment was determined by qPCR (Right). […] (FIG. 1E) STING Immunohistochemistry staining of the colon tissue from WT and SKO mice (Left) and Human. All images were shown at original magnification, 200×.\nTowards these objectives, the AOM/DSS model, as described above, was utilized and analyzed the effects of AOM and precursor DMH upon STING signaling. Principally, wild type (WT) or STING-deficient (SKO) murine embryonic fibroblasts (MEF) were treated in vitro with DMH or metabolite AOM for 8 hours and microarray analysis performed to analyze the consequences to gene expression. […] The observed STING-dependent gene expression was confirmed following RT-PCR analysis of select mRNA such as Cxcl10 and IFIT3 (FIG. 1B). […] Thus, the DNA damaging agent DMH/AOM can invoke STING-dependent signaling.\nTotal RNA was isolated from cells or tissues with RNeasy Mini kit (74104, Qiagen, Valencia, Calif.). RNA quality was analyzed by Bionalyzer RNA 6000 Nano (Agilent Technologies, Santa Clara Calif.). […]"}, "IRF3/NF-κB translocation": {"system": "IRF3/NF-κB translocation", "assay": "Immunofluorescence of IRF3/NF-κB translocation in FHC treated with DMH/AOM", "assay_type": "cell-based, human", "settings": "3 mM for 48 hours", "method": "FIGS. 8A-8C show fluorescence microscopy analysis (related to FIG. 1) of DAPI staining in WT and SKO MEFs treated with 3 mM of AOM of 3 mM of DMH (FIG. 8A) and anti-dsDNA staining and the ration of cytoplasm to nucleus (FIG. 8B) in Human normal colon epithelial cells (FHC) treated with 3 mM of AOM or 3 mM of DMH for 48 hours. (FIG. 8C) Immunofluorescence microscopy analysis of FHC treated with AOM and DMH sane as FIG. 8A for 48 hours using p65 or IRF3 antibody. Images shown at original magnification, 160×.\nTo start determining the mechanisms underlining the cause of DMH/AOM-induced STING activity, MEF or FHC cells were treated with these drugs and observed by two different approaches, DAPI staining and immunofluorescence (IF) using anti-dsDNA antibody, the leakage of DNA into the cytosol (FIGS. 8A and 8B). Cytosolic DNA activates STING and stimulates STING/TBK1 trafficking via autophagy to endosomal regions harboring the transcription factors IRF3 and NF-κB, which triggers cytokine production. […]\nCells were cultured and treated in their appropriate media on Lab-Tek II chamber slides. […] Immunostaining was performed with rabbit-anti-STING polyclonal followed by fluorescence conjugated secondary antibodies (FITC-goat-anti-rabbit) (Invitrogen). […]"}, "colon": {"system": "colon", "settings": "mice; single injection of AOM followed by DSS via drinking water; cited from earlier work"}, "[2]": {"system": "STING-dependent genes in FHC cells", "assay": "qPCR of Cxcl10 in human colon epithelial cells (FHC) treated with AOM", "assay_type": "cell-based", "settings": "FHC treated with RNAi to STING", "method": "as §1\nTowards these objectives, the AOM/DSS model, as described above, was utilized and analyzed the effects of AOM and precursor DMH upon STING signaling. […]"}, "type I IFN production": {"system": "type I IFN production", "assay": "IFNB induction (qPCR) in normal and colon cancer cells treated with AOM or DMH", "assay_type": "cell-based, human", "settings": "15 mM for 20 hours", "method": "FIG. 22. Normal and colon cancer cells were treated with AOM or DMH at 15 mM for 20 hours. IFNB induction was analyzed by qPCR. STING, IRF3 and NF-kB translocation was examined: +, translocation; −, no translocation.\nThe question arises as to why the STING-signaling pathway may be inhibited in colon adenocarcinoma. Recently, it was shown that STING-deficient cells and mice are sensitive to AOM-induced DNA damage. In this situation, the STING pathway may play a role in the DNA-damage response pathway, to induce the production of cytokines which facilitate tissue repair or damaged cell removal (Chatzinikolaou et al., 2014; Kidane et al., 2014; Lord and Ashworth, 2012). As such, innate immune induction of CA cells in response to DNA damaging agents was examined. […] Thus, the inhibition of the STING pathway may enable DNA damaged cells, harboring mutations, to escape part of the DNA damage response and the immune surveillance machinery to progress into a tumorigenic state."}}, "data": [{"smiles": "CN=[N+](C)[O-]", "note": "[AOM, Azoxymethane]", "values": [{"measurement": "mRNA production of innate immune related genes", "setting": "[1]; MEFs lacking STING (SKO)", "result": "marked decrease in the production of the same genes"}, {"measurement": "mRNA production of innate immune related genes", "setting": "[1]; WT MEFs", "result": "activated mRNA production of a wide array of innate immune related genes"}, {"measurement": "translocation of IRF3/NF-κB", "setting": "IRF3/NF-κB translocation", "result": "could instigate the translocation of IRF3/NF-κB"}, {"measurement": "colon cancer induced", "setting": "colon", "result": "~100", "unit": "%"}, {"measurement": "production of Cxcl10", "setting": "[2]", "result": "similarly reduced"}, {"measurement": "production of type I IFN", "setting": "type I IFN production; CA cells with defective STING activated IRF3 or NF-kB activity", "result": "unable to generate type I IFN"}, {"measurement": "production of type I IFN", "setting": "type I IFN production; normal colon epithelial (CCD841) and LS123", "result": "able to induce the production of type I IFN"}]}]}
